Experiments:
[1] = prior-art inhibitors; mineral oil; cited from earlier work
[2] = Solubility in water
[3] = Rust formation on polished carbon steel at a distance of 25 cm in closed vessel (vapor phase, condensed water); parameters: key: The amount of the rust is less than that in the blank test.; x: The amount of the rust is the same as that in the blank test; conditions: 20 mg sample, 5-liter vessel, 20°±2° C., observed 5 hours after water condensation
Procedure: A laboratory dish containing 20 milligrams of each sample obtained in the preceding Examples was added to a 5-liter glass vessel containing 50 milliliters of 30% aqueous solution of glycerin.
A piece of polished carbon steel (JIS G-4051) was arranged at the upper part of the vessel, at a distance of 25 centimeters from the dish. After keeping the vessel at 20°±2° C. during 1-5 days, water droplets were condensed on a surface of steel from moisture by pouring cold water into an aluminum pipe, and after 5 hours the presence of the rust on the steel piece was observed.

[4] = Oral acute toxicity, LD50 in rats; conditions: rat, in vivo, rats weighing 90 grams, fasted 24 hours, one week
Procedure: Specifics of the chemicals listed in Table 2 were administered orally in various concentration to respective groups of 10 rats weighing 90 grams after fasting for 24 hours.
After oral administration of the chemical, the rats were fed with a sufficient amount of a diet and water and kept in a thermo-hygrostat at a temperature of 25° C. and humidity of 60% during one week to determine the LD50.

[5] = ambient temperatures; cited from earlier work

| solubility in water [2] | SMILES | solubility in oil [1] | presence of rust on steel piece, after leaving for 1 day [3] | presence of rust on steel piece, after leaving for 5 days [3] | LD50 at 168 h [4] [mg/kg] | distance of diffusion of gas [5] |
| --- | --- | --- | --- | --- | --- | --- |
|  | C1CCC(NC2CCCCC2)CC1 [FERROGUARD] | only slightly soluble in mineral oil |  |  |  |  |
| wholly soluble in water | CC(N)C(=O)OC(C)(C)C (stereo not drawn) [α-alanine-tert-butyl ester, α-alanine-tert-butylester] |  | o | o |  |  |
| wholly soluble in water | CC(C)(C)OC(=O)CCN [β-alanine-tert-butyl ester, β-alanine-tert-butylester] |  | o | o |  |  |
|  | C1CCC(NC2CCCCC2)CC1.O=[N+]([O-])O [DICHAN, dicyclohexylamine nitrate, reference compound] | no solubility in oil | x | x | 200 | about 30 cm. |
|  | CC(C)(C)OC(=O)[C@@H]1CCCN1 [proline-tert-butyl ester, proline-tert-butylester] |  | o | o | > 5000 |  |
|  | CNCC(=O)OC(C)(C)C [N-methylglycine-tert-butyl ester, N-methylglycine-tert-butylester] |  | o | o |  |  |
|  | CC(C)(C)OC(=O)[C@@H](N)Cc1ccccc1 [phenylalanine-tert-butyl ester, phenylalanine-tert-butylester] |  | o | o |  |  |
|  | C1CCC(NC2CCCCC2)CC1 [dicyclohexylamine, reference compound] |  |  |  | 500 |  |
|  | CC(C)(C)OC(=O)CN |  | o | o |  |  |
|  | CCOC(=O)C(C)N (stereo not drawn) [α-alanine ethyl ester] |  | o | o | > 5000 |  |
